Laboratory results from US20090011951A1, “Method of Gene Screening With Yeast Having Ergosterol Synthase Undergoing Inducible Expression” (priority 2004, published 2009).

Tests used:
yeast = settings: known action; cited from earlier work
[1] = tested on: yeast (Saccharomyces cerevisiae) that inducibly expresses ERG6; assay: Cycloheximide sensitivity of the strain that inducibly expresses ERG6; type: cell-based; settings: 30° C., 2 days, various concentrations
Procedure: The following experiments were performed to confirm a difference in drug resistance of yeast that inducibly expresses ergosterol depending on presence or absence of induction.
It was confirmed that the drug sensitivity was increased by turning off the expression of ergosterol.

**Q.** With CN(Cc1cnc2nc(N)nc(N)c2n1)c1ccc(C(=O)N[C@@H](CCC(=O)O)C(=O)O)cc1 [Methotrexate] as the molecule, how does the “growth inhibitory action against yeast” value (yeast) read?
**A.** has a growth inhibitory action against yeast

**Q.** Which cycloheximide sensitivity ([1]; galactose medium (ERG6 induced)) does the source give for C[C@@H]1C[C@@H]([C@H](O)CC2CC(=O)NC(=O)C2)C(=O)[C@@H](C)C1 [cycloheximide] here?
**A.** equal to that of a pdr1 pdr3-disrupted stain (ERG6 strain)

**Q.** What about the cycloheximide sensitivity ([1]; glucose medium (ERG6 repressed)) of the same molecule?
**A.** equal to that of a pdr1 pdr3 erg6-disrupted strain
